Measurements published in patent US6787525B1, “Glyceryl nucleotides, method for the production thereof and their use” (priority 1998, dated 2004).

Experiments:
[1] = test system: HOP-62; assay: In vitro cytostatic effect (SRB): HOP-62, Lung cancer
[2] = test system: M14; assay: In vitro cytostatic effect (SRB): M14, Melanoma
[3] = test system: A549/ATCC; assay: In vitro cytostatic effect (SRB): A549/ATCC, Lung cancer
[4] = test system: OVCAR-3; assay: In vitro cytostatic effect (SRB): OVCAR-3, Ovarian cancer
[5] = test system: UACC-62; assay: In vitro cytostatic effect (SRB): UACC-62, Melanoma
[6] = test system: SK-OV-3; assay: In vitro cytostatic effect (SRB): SK-OV-3, Ovarian cancer
[7] = test system: SK-MEL-28; assay: In vitro cytostatic effect (SRB): SK-MEL-28, Melanoma
[8] = test system: DU-145; assay: In vitro cytostatic effect (SRB): DU-145, Prostate cancer
[9] = test system: NCI-H226; assay: In vitro cytostatic effect (SRB): NCI-H226, Lung cancer
[10] = test system: KM12; assay: In vitro cytostatic effect (SRB): KM12, Intestinal cancer
[11] = test system: 768-0; assay: In vitro cytostatic effect (SRB): 768-0, Kidney cancer
[12] = test system: ACHN; assay: In vitro cytostatic effect (SRB): ACHN, Kidney cancer
[13] = test system: MDA-N; assay: In vitro cytostatic effect (SRB): MDA-N, Breast cancer
[14] = test system: SNB-75; assay: In vitro cytostatic effect (SRB): SNB-75, Cancer of the central nervous system
[15] = test system: SW-620; assay: In vitro cytostatic effect (SRB): SW-620, Intestinal cancer
[16] = test system: IGROV1; assay: In vitro cytostatic effect (SRB): IGROV1, Ovarian cancer
[17] = test system: RPMI-8226; assay: In vitro cytostatic effect (SRB): RPMI-8226, Leukemia
[18] = test system: OVCAR-8; assay: In vitro cytostatic effect (SRB): OVCAR-8, Ovarian cancer
[19] = test system: OVCAR-4; assay: In vitro cytostatic effect (SRB): OVCAR-4, Ovarian cancer
[20] = test system: UACC-257; assay: In vitro cytostatic effect (SRB): UACC-257, Melanoma
[21] = test system: NCI/ADR-RES; assay: In vitro cytostatic effect (SRB): NCI/ADR-RES, Breast cancer
[22] = test system: COLO205; assay: In vitro cytostatic effect (SRB): COLO205, Intestinal cancer
[23] = test system: U251; assay: In vitro cytostatic effect (SRB): U251, Cancer of the central nervous system
[24] = test system: BT-549; assay: In vitro cytostatic effect (SRB): BT-549, Breast cancer
[25] = test system: RXF 393; assay: In vitro cytostatic effect (SRB): RXF 393, Kidney cancer
[26] = test system: SF-295; assay: In vitro cytostatic effect (SRB): SF-295, Cancer of the central nervous system
[27] = test system: HCT-15; assay: In vitro cytostatic effect (SRB): HCT-15, Intestinal cancer; conditions: 48-hour incubation
[28] = test system: EKVX; assay: In vitro cytostatic effect (SRB): EKVX, Lung cancer; conditions: 48-hour incubation
[29] = read-out: LC50, 48-hour incubation

Nc1ccn(C2CCC(COP(=O)(O)OCC(O)COP(=O)(O)OCC3OC(n4cc(F)c(=O)[nH]c4=O)CC3O)O2)c(=O)n1 (racemic) [NSC 704533, 2′,3′-didesoxycytidylyl-(5′→1)-racglycerylyl-(3→5′)-5-fluoro-2′-desoxyuridine]
GI50 ([1]; 48-hour incubation): 0.902 µM | TGI ([1]; 48-hour incubation): >1.00E − 04 mol/l | CC50 [1, 29]: > 100 µM | GI50 ([2]; 48-hour incubation): 0.203 µM | TGI ([2]; 48-hour incubation): >1.00E − 04 mol/l | CC50 [2, 29]: > 100 µM | GI50 ([3]; 48-hour incubation): 0.0477 µM | TGI ([3]; 48-hour incubation): >1.00E − 04 mol/l | CC50 [3, 29]: > 100 µM | GI50 ([4]; 48-hour incubation): 65.4 µM | TGI ([4]; 48-hour incubation): >1.00E − 04 mol/l | CC50 [4, 29]: > 100 µM | GI50 ([5]; 48-hour incubation): 0.55 µM | TGI ([5]; 48-hour incubation): >1.00E − 04 mol/l | CC50 [5, 29]: > 100 µM | GI50 ([6]; 48-hour incubation): 44.3 µM | TGI ([6]; 48-hour incubation): >1.00E − 04 mol/l | CC50 [6, 29]: > 100 µM | GI50 ([7]; 48-hour incubation): 37.9 µM | TGI ([7]; 48-hour incubation): >1.00E − 04 mol/l | CC50 [7, 29]: > 100 µM | GI50 ([8]; 48-hour incubation): 0.158 µM | TGI ([8]; 48-hour incubation): >1.00E − 04 mol/l | CC50 [8, 29]: > 100 µM | GI50 ([9]; 48-hour incubation): > 100 µM | TGI ([9]; 48-hour incubation): >1.00E − 04 mol/l | CC50 [9, 29]: > 100 µM | GI50 ([10]; 48-hour incubation): 14.5 µM | TGI ([10]; 48-hour incubation): >1.00E − 04 mol/l | CC50 [10, 29]: > 100 µM | GI50 ([11]; 48-hour incubation): > 100 µM | TGI ([11]; 48-hour incubation): >1.00E − 04 mol/l | CC50 [11, 29]: > 100 µM | GI50 ([12]; 48-hour incubation): < 0.01 µM | TGI ([12]; 48-hour incubation): >1.00E − 04 mol/l | CC50 [12, 29]: > 100 µM | GI50 ([13]; 48-hour incubation): 25.4 µM | TGI ([13]; 48-hour incubation): >1.00E − 04 mol/l | CC50 [13, 29]: > 100 µM | GI50 ([14]; 48-hour incubation): 1.59 µM | TGI ([14]; 48-hour incubation): >1.00E − 04 mol/l | CC50 [14, 29]: > 100 µM | GI50 ([15]; 48-hour incubation): > 100 µM | TGI ([15]; 48-hour incubation): >1.00E − 04 mol/l | CC50 [15, 29]: > 100 µM | GI50 ([16]; 48-hour incubation): 68 µM | TGI ([16]; 48-hour incubation): >1.00E − 04 mol/l | CC50 [16, 29]: > 100 µM | GI50 ([17]; 48-hour incubation): 11 µM | TGI ([17]; 48-hour incubation): >1.00E − 04 mol/l | CC50 [17, 29]: > 100 µM | GI50 ([18]; 48-hour incubation): 0.141 µM | TGI ([18]; 48-hour incubation): >1.00E − 04 mol/l | CC50 [18, 29]: > 100 µM | GI50 ([19]; 48-hour incubation): > 100 µM | TGI ([19]; 48-hour incubation): >1.00E − 04 mol/l | CC50 [19, 29]: > 100 µM | GI50 ([20]; 48-hour incubation): > 100 µM | TGI ([20]; 48-hour incubation): >1.00E − 04 mol/l | CC50 [20, 29]: > 100 µM | GI50 ([21]; 48-hour incubation): 0.695 µM | TGI ([21]; 48-hour incubation): >1.00E − 04 mol/l | CC50 [21, 29]: > 100 µM | GI50 ([22]; 48-hour incubation): 17.7 µM | TGI ([22]; 48-hour incubation): >1.00E − 04 mol/l | CC50 [22, 29]: > 100 µM | GI50 ([23]; 48-hour incubation): 1.26 µM | TGI ([23]; 48-hour incubation): >1.00E − 04 mol/l | CC50 [23, 29]: > 100 µM | GI50 ([24]; 48-hour incubation): 4.15 µM | TGI ([24]; 48-hour incubation): >1.00E − 04 mol/l | CC50 [24, 29]: > 100 µM | GI50 ([25]; 48-hour incubation): 5.12 µM | TGI ([25]; 48-hour incubation): >1.00E − 04 mol/l | CC50 [25, 29]: > 100 µM | GI50 ([26]; 48-hour incubation): 0.0345 µM | TGI ([26]; 48-hour incubation): >1.00E − 04 mol/l | CC50 [26, 29]: > 100 µM | GI50 [27]: 17.9 µM | TGI [27]: >1.00E − 04 mol/l | GI50 [28]: > 100 µM | TGI [28]: >1.00E − 04 mol/l
